Laboratory results: PubChem BioAssay AID256 (DTP/NCI, 2004)
Inconclusive results and toxic doses are left out. How the source made its calls: active means survival T/C of 150% or more; inactive means T/C below 125% in these data.

Tested on: CD2F1 mice, L1210 leukemia ip, survival T/C
Experiment: NCI In Vivo Anticancer Drug Screen. Data for tumor model L1210 Leukemia (intraperitoneal) in CD2F1 (CDF1) mice
Details: endpoint: mean survival time, higher = longer survival
Outline: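 Read-out first: treated-group measurement over vehicle-control measurement, expressed as a ratio. Animals bore a transplanted tumor line and were dosed with compound or vehicle.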

[1] = dose: 100.0 mg/kg/injection, schedule: Q01DX009 (ip), vehicle: saline with Tween-80
[2] = dose: 100.0 mg/kg/injection, schedule: Q01DX001 (ip), vehicle: saline with Tween-80
[3] = dose: 200.0 mg/kg/injection, schedule: Q01DX001 (ip), vehicle: saline with Tween-80
[4] = dose: 400.0 mg/kg/injection, schedule: Q01DX001 (ip), vehicle: saline with Tween-80
[5] = dose: 100.0 mg/kg/injection, schedule: Q04DX002 (ip), vehicle: saline with Tween-80

Measured: T/C

CC(=O)OC1C(CO)OC(n2ccc3c(N)ncnc32)C1O (configuration not stated)
inactive: dose: 5.0 mg/kg/injection, schedule: Q01DX001 (ip), vehicle: saline 104 % of control | dose: 10.0 mg/kg/injection, schedule: Q01DX001 (ip), vehicle: saline 117 % of control | dose: 20.0 mg/kg/injection, schedule: Q01DX001 (ip), vehicle: saline 117 % of control | dose: 40.0 mg/kg/injection, schedule: Q01DX001 (ip), vehicle: saline 110 % of control

O=C(O)/C=C\C(=O)OCc1ccc(Cl)cc1Cl
inactive: [1] 106 % of control | dose: 100.0 mg/kg/injection, schedule: Q04DX003 (ip), vehicle: saline with Tween-80 91 % of control | dose: 200.0 mg/kg/injection, schedule: Q04DX003 (ip), vehicle: saline with Tween-80 101 % of control | dose: 400.0 mg/kg/injection, schedule: Q04DX003 (ip), vehicle: saline with Tween-80 95 % of control

O=NN(CCCl)C(=O)Nc1ccc(CCO)cc1
inactive: dose: 0.31 mg/kg/injection, schedule: Q01DX001 (ip), vehicle: other 103 % of control | dose: 0.62 mg/kg/injection, schedule: Q01DX001 (ip), vehicle: other 97 % of control | dose: 1.25 mg/kg/injection, schedule: Q01DX001 (ip), vehicle: other 105 % of control | dose: 2.5 mg/kg/injection, schedule: Q01DX001 (ip), vehicle: other 120 % of control | dose: 39.0 mg/kg/injection, schedule: Q01DX001 (ip), vehicle: other 98 % of control
active: dose: 2.03 mg/kg/injection, schedule: Q01DX009 (ip), vehicle: acetone 205 % of control | dose: 3.08 mg/kg/injection, schedule: Q01DX009 (ip), vehicle: saline with Tween-80 203 % of control | dose: 4.62 mg/kg/injection, schedule: Q01DX009 (ip), vehicle: saline with Tween-80 300 % of control | dose: 9.75 mg/kg/injection, schedule: Q01DX001 (ip), vehicle: other 277 % of control | dose: 19.5 mg/kg/injection, schedule: Q01DX001 (ip), vehicle: other 361 % of control | dose: 100.0 mg/kg/injection, schedule: Q01DX001 (ip), vehicle: carboxymethylcellulose (CMC) 172 % of control | dose: 200.0 mg/kg/injection, schedule: Q01DX001 (ip), vehicle: carboxymethylcellulose (CMC) 170 % of control | dose: 400.0 mg/kg/injection, schedule: Q01DX001 (ip), vehicle: carboxymethylcellulose (CMC) 307 % of control

NC(N)=NC(=S)Nc1ccccc1
inactive: [2] 118 % of control | [3] 103 % of control | [4] 118 % of control

CC(C)(C)/C=C\C=C\C(C)(C)C
inactive: dose: 50.0 mg/kg/injection, schedule: Q01DX009 (ip), vehicle: saline with Tween-80 100 % of control | [1] 103 % of control | dose: 200.0 mg/kg/injection, schedule: Q01DX009 (ip), vehicle: saline with Tween-80 92 % of control

CC(=O)CC(=O)C(C)(C)C(C)=O
inactive: [2] 98 % of control | dose: 100.0 mg/kg/injection, schedule: Q01DX009 (ip), vehicle: saline sonified 97 % of control | [5] 117 % of control | [3] 104 % of control | dose: 200.0 mg/kg/injection, schedule: Q01DX009 (ip), vehicle: saline sonified 105 % of control | dose: 200.0 mg/kg/injection, schedule: Q04DX002 (ip), vehicle: saline with Tween-80 102 % of control | [4] 101 % of control | dose: 400.0 mg/kg/injection, schedule: Q01DX009 (ip), vehicle: saline sonified 100 % of control | dose: 400.0 mg/kg/injection, schedule: Q04DX002 (ip), vehicle: saline with Tween-80 98 % of control

O=P(CP(c1ccccc1)c1ccccc1)(c1ccccc1)c1ccccc1
inactive: dose: 25.0 mg/kg/injection, schedule: Q04DX002 (ip), vehicle: saline with Tween-80 96 % of control | dose: 50.0 mg/kg/injection, schedule: Q04DX002 (ip), vehicle: saline with Tween-80 92 % of control | [5] 92 % of control

CCCCCCCCCCCCCCCCCCCCCC(CC)CC
inactive: [2] 101 % of control | [3] 107 % of control | [4] 103 % of control
